Results from patent publication US6737383B1, “Herbicidal oxadiazolidines” (priority 1999, dated 2004).

Columns and labels:
[1] = tested on: morningglory; experiment: Test B pre/postemergence morningglory; type: in vivo, Ipomoea hederacea
Procedure, shortened: (§1)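 Response is a visual 0-to-10 score relative to untreated plants, where 0 means no effect and 10 means complete control, taken twelve to sixteen days after application. Treatments went onto soil at planting and onto foliage of 1- to 4-leaf plants, using a surfactant-containing non-phytotoxic solvent.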

[2] = tested on: pigweed; experiment: Test B pre/postemergence pigweed; type: in vivo, Amaranthus retroflexus
Procedure, shortened: as §1

[3] = tested on: smallflower flatsedge; experiment: Test B flood test smallflower flatsedge; type: in vivo, Cyperus difformis; conditions: Pre-emergence
Procedure, shortened: (§2)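 Each value is a visual injury score relative to controls, with 10 meaning complete control and 0 no effect. Evaluation took place twelve to sixteen days after the 2-leaf-stage plants were treated and kept in the greenhouse.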

[4] = tested on: surinam grass; experiment: Test B pre/postemergence surinam grass; type: in vivo, Brachiaria decumbens
Procedure, shortened: as §1

[5] = tested on: bedstraw; experiment: Test B pre/postemergence bedstraw; type: in vivo, Galium aparine
Procedure, shortened: as §1

[6] = tested on: rice; experiment: Test B flood test rice; type: in vivo, Oryza sativa; conditions: Pre-emergence
Procedure, shortened: as §2

[7] = tested on: blackgrass; experiment: Test B pre/postemergence blackgrass; type: in vivo, Alopecurus myosuroides
Procedure, shortened: as §1

[8] = tested on: corn; experiment: Test B pre/postemergence corn; type: in vivo, Zea mays
Procedure, shortened: as §1

[9] = tested on: wild oat; experiment: Test B pre/postemergence wild oat; type: in vivo, Avena fatua
Procedure, shortened: as §1

[10] = tested on: bamyardgrass; experiment: Test B flood test barnyardgrass; type: in vivo, Echinochloa crus-galli; conditions: Pre-emergence
Procedure, shortened: as §2

[11] = tested on: velvetleaf; experiment: Test B pre/postemergence velvetleaf; type: in vivo, Abutilon theophrasti
Procedure, shortened: as §1

[12] = tested on: giant foxtail; experiment: Test B pre/postemergence giant foxtail; type: in vivo, Setaria faberii
Procedure, shortened: as §1

[13] = tested on: cocklebur; experiment: Test B pre/postemergence cocklebur; type: in vivo, Xanthium strumarium
Procedure, shortened: as §1

[14] = tested on: soybean; experiment: Test B pre/postemergence soybean; type: in vivo, Glycine max
Procedure, shortened: as §1

[15] = tested on: wheat; experiment: Test B pre/postemergence wheat; type: in vivo, Triticum aestivum
Procedure, shortened: as §1

[16] = tested on: crabgrass; experiment: Test B pre/postemergence crabgrass; type: in vivo, Digitaria sanguinalis
Procedure, shortened: as §1

[17] = Postemergence, Rate 125 g/ha, scale 0 to 10, 0 is no effect, 10 is complete control
[18] = Preemergence, Rate 62 g/ha, scale of 0 to 10 where 0 is no effect and 10 is complete control
[19] = Preemergence, Rate 250 g/ha, scale of 0 to 10 where 0 is no effect and 10 is complete control
[20] = Preemergence, Rate 500 g/ha, scale of 0 to 10 where 0 is no effect and 10 is complete control
[21] = Rate 62 g/ha, Postemergence, scale 0 to 10 (0 no effect, 10 complete control)
[22] = Rate 500 g/ha, Postemergence, scale 0 to 10, 0 no effect, 10 complete control
[23] = Rate 1000 g/ha, scale 0 to 10 (0 no effect, 10 complete control)
[24] = Rate 125 g/ha, flood test species, scale 0 to 10 where 0 is no effect and 10 is complete control
[25] = Rate 250 g/ha, flood-test species, scale 0 to 10, 0 is no effect, 10 is complete control
[26] = Rate 500 g/ha, flood test species, scale 0 to 10 (0 no effect, 10 complete control)
[27] = Rate 250 g/ha, Postemergence, scale of 0 to 10 where 0 is no effect and 10 is complete control

CC(C)N(C(=O)n1oc(=O)n(-c2ccc3ccccc3c2)c1=O)c1ccc(Cl)cc1 [Compound 333]
Plant response rating, Morningglory [1, 17]: 0
Morningglory plant response rating [1, 18]: 0
Morningglory plant response rating (0 to 10 scale) ([1]; Preemergence, Rate 125 g/ha): 0
Morningglory plant response rating [1, 19]: 0
Morningglory plant response rating [1, 20]: 0
Morningglory plant response rating [1, 21]: 0
Plant response rating, Morningglory [1, 22]: 0
Plant response rating, Redroot pigweed [2, 17]: 0
Redroot pigweed plant response rating [2, 18]: 0
Redroot pigweed plant response rating (0 to 10 scale) ([2]; Preemergence, Rate 125 g/ha): 0
Redroot pigweed plant response rating [2, 19]: 0
Redroot pigweed plant response rating [2, 20]: 0
Redroot pigweed plant response rating [2, 21]: 0
Plant response rating, Redroot pigweed [2, 22]: 0
S. Flatsedge plant response rating [3, 23]: 0
S. Flatsedge plant response rating [3, 24]: 0
S. Flatsedge plant response rating [3, 25]: 0
S. Flatsedge plant response rating [3, 26]: 0
Plant response rating, B. signalgrass [4, 17]: 0
B. signalgrass plant response rating [4, 18]: 0
B. signalgrass plant response rating (0 to 10 scale, 0 is no effect, 10 is complete control) ([4]; Preemergence, Rate 125 g/ha): 0
B. signalgrass plant response rating [4, 19]: 0
B. signalgrass plant response rating [4, 20]: 0
B. signalgrass plant response rating [4, 21]: 0
Plant response rating, B. signalgrass [4, 27]: 0
Plant response rating, B. signalgrass [4, 22]: 0
Plant response rating, Bedstraw [5, 17]: 0
Bedstraw plant response rating [5, 18]: 0
Bedstraw plant response rating (0 to 10 scale) ([5]; Preemergence, Rate 125 g/ha): 0
Bedstraw plant response rating [5, 19]: 0
Bedstraw plant response rating [5, 20]: 0
Bedstraw plant response rating [5, 21]: 0
Plant response rating, Bedstraw [5, 27]: 0
Plant response rating, Bedstraw [5, 22]: 0
Rice plant response rating [6, 23]: 0
Rice plant response rating [6, 24]: 0
Rice plant response rating [6, 25]: 0
Rice plant response rating [6, 26]: 0
Plant response rating, Blackgrass [7, 17]: 0
Blackgrass plant response rating [7, 18]: 0
Blackgrass plant response rating (0 to 10 scale) ([7]; Preemergence, Rate 125 g/ha): 0
Blackgrass plant response rating [7, 19]: 0
Blackgrass plant response rating [7, 20]: 0
Blackgrass plant response rating [7, 21]: 0
Plant response rating, Blackgrass [7, 27]: 0
Plant response rating, Blackgrass [7, 22]: 0
Plant response rating, Corn [8, 17]: 0
Corn plant response rating [8, 18]: 0
Corn plant response rating (0 to 10 scale) ([8]; Preemergence, Rate 125 g/ha): 0
Corn plant response rating [8, 19]: 0
Corn plant response rating [8, 20]: 0
Corn plant response rating [8, 21]: 0
Plant response rating, Corn [8, 22]: 0
Plant response rating, Wild oats [9, 17]: 0
Wild oats plant response rating [9, 18]: 0
Wild oats plant response rating (0 to 10 scale) ([9]; Preemergence, Rate 125 g/ha): 0
Wild oats plant response rating [9, 19]: 0
Wild oats plant response rating [9, 20]: 0
Wild oats plant response rating [9, 21]: 0
Plant response rating, Wild oats [9, 22]: 0
Barnyardgrass plant response rating [10, 23]: 0
Barnyardgrass plant response rating [10, 24]: 0
Barnyardgrass plant response rating [10, 25]: 0
Barnyardgrass plant response rating [10, 26]: 0
Plant response rating, Velvetleaf [11, 17]: 0
Velvetleaf plant response rating [11, 18]: 0
Velvetleaf plant response rating (0 to 10 scale) ([11]; Preemergence, Rate 125 g/ha): 0
Velvetleaf plant response rating [11, 19]: 0
Velvetleaf plant response rating [11, 20]: 0
Velvetleaf plant response rating [11, 21]: 0
Plant response rating, Velvetleaf [11, 22]: 0
Plant response rating, Giant foxtail [12, 17]: 0
Giant foxtail plant response rating [12, 18]: 0
Giant foxtail plant response rating (0 to 10 scale) ([12]; Preemergence, Rate 125 g/ha): 0
Giant foxtail plant response rating [12, 19]: 0
Giant foxtail plant response rating [12, 20]: 2
Giant foxtail plant response rating [12, 21]: 0
Plant response rating, Giant foxtail [12, 22]: 0
Plant response rating, Cocklebur [13, 17]: 0
Cocklebur plant response rating [13, 18]: 0
Cocklebur plant response rating (0 to 10 scale) ([13]; Preemergence, Rate 125 g/ha): 0
Cocklebur plant response rating [13, 19]: 0
Cocklebur plant response rating [13, 20]: 0
Cocklebur plant response rating [13, 21]: 0
Plant response rating, Cocklebur [13, 22]: 0
Plant response rating, Soybean [14, 17]: 2
Soybean plant response rating [14, 18]: 0
Soybean plant response rating (0 to 10 scale) ([14]; Preemergence, Rate 125 g/ha): 0
Soybean plant response rating [14, 19]: 0
Soybean plant response rating [14, 20]: 0
Soybean plant response rating [14, 21]: 2
Plant response rating, Soybean [14, 22]: 4
Plant response rating, Wheat [15, 17]: 0
Wheat plant response rating [15, 18]: 0
Wheat plant response rating (0 to 10 scale) ([15]; Preemergence, Rate 125 g/ha): 0
Wheat plant response rating [15, 19]: 0
Wheat plant response rating [15, 20]: 0
Wheat plant response rating [15, 21]: 0
Plant response rating, Wheat [15, 22]: 0
Plant response rating, Crabgrass [16, 17]: 0
Crabgrass plant response rating [16, 18]: 0
Crabgrass plant response rating (0 to 10 scale) ([16]; Preemergence, Rate 125 g/ha): 0
Crabgrass plant response rating [16, 19]: 0
Crabgrass plant response rating [16, 20]: 3
Crabgrass plant response rating [16, 21]: 0
Plant response rating, Crabgrass [16, 22]: 0
